In US20080176813A1, “CARBOCYCLIC NUCLEOSIDES AND PROCESS FOR OBTAINING SUCH” (STICHTING REGA VZW, priority 1999, published 2008):
Converted amounts (≈) assume the structure as drawn. Read-outs that look alike come from different tables or passages of the source. One block for each compound: values may come before it.

Tests used:
VZV (YS) = assay: Antiviral activity, virus plaque formation in HEL cells; format: cell-based, varicella-zoster virus
Description: (§1) The anti-herpesvirus activity of D-cyclohexene G and L-cyclohexene G and the respective adenine analogues was determined in human embryonic skin muscle fibroblast (E6SM: HSV-1, HSV-2) and in human embryonic lung (HEL) cells [varicella-zoster virus (VZV), cytomegalovirus (CMV)] (Table I).

HSV-1 (KOS) = assay: Antiviral activity, virus-induced cytopathogenicity in E6SM cell cultures; format: cell-based; conditions: Human alphaherpesvirus 1, read-out: Activity: minimum inhibitory concentration required to reduce virus-induced cytopathogenicity by 50% (IC50), E6SM cell cultures
Description: as §1

HSV-1 (TK−/TKf VMW1837) = assay: as above; format: cell-based; conditions: Human alphaherpesvirus 1, E6SM, read-out: Activity: minimum inhibitory concentration required to reduce virus-induced cytopathogenicity by 50% (IC50)
Description: as §1

HSV-2 (196) = assay: as above; format: cell-based; conditions: Human alphaherpesvirus 2, read-out: Activity: minimum inhibitory concentration required to reduce virus-induced cytopathogenicity by 50% (IC50), E6SM cell cultures
Description: as §1

HSV-1 (F) = assay: as above; format: cell-based; conditions: Human alphaherpesvirus 1, read-out: Activity: minimum inhibitory concentration required to reduce virus-induced cytopathogenicity by 50% (IC50), E6SM cell cultures
Description: as §1

HSV-2 (G) = assay: as above; format: cell-based; conditions: Human alphaherpesvirus 2, read-out: Activity: minimum inhibitory concentration required to reduce virus-induced cytopathogenicity by 50% (IC50), E6SM cell cultures
Description: as §1

HSV-2 (Lyons) = assay: as above; format: cell-based; conditions: Human alphaherpesvirus 2, read-out: Activity: minimum inhibitory concentration required to reduce virus-induced cytopathogenicity by 50% (IC50), E6SM cell cultures
Description: as §1

HSV-1 (McIntyre) = assay: as above; format: cell-based; conditions: Human alphaherpesvirus 1, read-out: Activity: minimum inhibitory concentration required to reduce virus-induced cytopathogenicity by 50% (IC50), E6SM cell cultures
Description: as §1

HSV-1 (TK−KOS ACVf) = assay: as above; format: cell-based; conditions: Human alphaherpesvirus 1, E6SM, read-out: Activity: minimum inhibitory concentration required to reduce virus-induced cytopathogenicity by 50% (IC50)
Description: as §1

HeLa = assay: Cytotoxicity, alteration of cell morphology; format: cell-based
HEL [1] = assay: Cytotoxicity, HEL (footnote c not given); conditions: HEL (footnote c, not defined)
Description: as §1

Vero = assay: Cytotoxicity, alteration of cell morphology; format: cell-based
HEL [2] = assay: Cytotoxicity, cell growth; conditions: HEL (footnote b)
[3] = Cytotoxicity, alteration of cell morphology; conditions: E8SM
Description: as §1

VZV (TK−YS/R) = assay: microbe, parasite or virus in culture; format: cell-based, varicella-zoster virus; conditions: Human alphaherpesvirus 3, HEL, read-out: Activity: inhibitory concentration required to reduce virus plaque formation by 50% (IC50)
Description: as §1

VZV (TK−07/1) = assay: microbe, parasite or virus in culture; format: cell-based, varicella-zoster virus; conditions: Human alphaherpesvirus 3, HEL, read-out: Activity: inhibitory concentration required to reduce virus plaque formation by 50% (IC50)
Description: as §1

VZV (OKA) = assay: microbe, parasite or virus in culture; format: cell-based, varicella-zoster virus; conditions: Human alphaherpesvirus 3, HEL, read-out: Activity: inhibitory concentration required to reduce virus plaque formation by 50% (IC50)
Description: as §1

CMV (Davis) = assay: Antiviral activity, virus plaque formation in HEL cells; format: cell-based, cytomegalovirus; conditions: Human betaherpesvirus 5, read-out: Activity: inhibitory concentration required to reduce virus plaque formation by 50% (IC50), HEL cells, virus input 20 PFU
Description: as §1

CMV (AD 169) = assay: as above; format: cell-based, cytomegalovirus; conditions: Human betaherpesvirus 5, read-out: Activity: inhibitory concentration required to reduce virus plaque formation by 50% (IC50), HEL cells, virus input 20 PFU
Description: as §1

Compound: Nc1nc2c(ncn2COCCO)c(=O)[nH]1 [Acyclovir, reference compound]
- IC50 (VZV (YS); Human alphaherpesvirus 3, read-out: Activity: inhibitory concentration required to reduce virus plaque formation by 50% (IC50), VZV (YS), HEL cells, virus input 20 PFU): 1.1 µg/mL (≈ 4.88 µM)
- IC50 (HSV-1 (KOS)): 0.01 µg/mL (≈ 0.0444 µM)
- IC50 (HSV-1 (TK−/TKf VMW1837)): 0.07 µg/mL (≈ 0.311 µM)
- IC50 (HSV-2 (196)): 0.02 µg/mL (≈ 0.0888 µM)
- IC50 (HSV-1 (F)): 0.003 µg/mL (≈ 0.0133 µM)
- IC50 (HSV-2 (G)): 0.02 µg/mL (≈ 0.0888 µM)
- IC50 (HSV-2 (Lyons)): 0.02 µg/mL (≈ 0.0888 µM)
- IC50 (HSV-1 (McIntyre)): 0.005 µg/mL (≈ 0.0222 µM)
- IC50 (HSV-1 (TK−KOS ACVf)): 9.6 µg/mL (≈ 42.6 µM)

Compound: O=c1[nH]c(=O)n([C@H]2C[C@H](O)[C@@H](CO)O2)cc1/C=C/Br [Brivudin, reference compound]
- Minimum cytotoxic concentration causing a microscopically detectable alteration of cell morphology (HeLa): ≧400 μg/ml
- Cytotoxicity (concentration) (HEL [1]): >200 µg/mL
- IC50 (VZV (YS); Human alphaherpesvirus 3, HEL, read-out: Activity: inhibitory concentration required to reduce virus plaque formation by 50% (IC50)): 0.03 µg/mL (≈ 0.0901 µM)
- IC50 (HSV-1 (KOS)): 0.001 µg/mL (≈ 0.003 µM)
- IC50 (HSV-1 (TK−/TKf VMW1837)): > 80 µg/mL
- IC50 (HSV-2 (196)): > 80 µg/mL
- IC50 (HSV-1 (F)): 0.001 µg/mL (≈ 0.003 µM)
- IC50 (HSV-2 (G)): > 80 µg/mL
- IC50 (HSV-2 (Lyons)): > 80 µg/mL
- IC50 (HSV-1 (McIntyre)): 0.001 µg/mL (≈ 0.003 µM)
- IC50 (HSV-1 (TK−KOS ACVf)): > 80 µg/mL
- Minimum cytotoxic concentration causing a microscopically detectable alteration of cell morphology (Vero): ≧400 μg/ml
- Cytotoxic concentration required to reduce cell growth by 50% (HEL [2]): >50 µg/mL
- Minimum cytotoxic concentration causing a microscopically detectable alteration of cell morphology [3]: ≧400 μg/ml
- IC50 (VZV (TK−YS/R)): > 50 µg/mL
- IC50 (VZV (TK−07/1)): > 20 µg/mL
- IC50 (VZV (OKA)): 0.003 µg/mL (≈ 0.00901 µM)

- IC50 (CMV (Davis)): 0.2 µg/mL (≈ 0.716 µM)
- IC50 (CMV (AD 169)): 0.08 µg/mL (≈ 0.287 µM)
Compound: Nc1ccn(C[C@@H](CO)OCP(=O)(O)O)c(=O)n1 [Cidolovir, reference compound]
- Cytotoxicity (concentration) (HEL [1]): >50 µg/mL
- Cytotoxic concentration required to reduce cell growth by 50% (HEL [2]): >50 µg/mL
